Paper PMC8036603, “Small Molecule Inhibitors of White Spot Syndrome Virus: Promise in Shrimp Seedling Culture” (International Journal of Molecular Sciences, 2021)

Columns and labels:
[1] = system: white spot syndrome virus (WSSV); assay: Survival of WSSV-infected shrimp larvae on co-incubation with compound; assay type: in vivo, Litopenaeus vannamei; settings: for enhancement of survival rate in WSSV-infected larvae: 72 hpi, 10 mg/L, co-incubation; for decrease of mortality of WSSV-infected larvae after exposure: abstract statement
Experimental: For in vivo study of co-incubation, C2 and C7 was separately incubated with WSSV and shrimp larvae.
Figure 2 C2 and C7 inhibited WSSV infection in shrimp larvae. (A) Schematic diagram describing the workflow. (B) The survival rate of WSSV-infected shrimp was analyzed in 0.31 to 10 mg/L treatments at 72 hpi. (C) Survivorship curve of WSSV-infected shrimp was analyzed in C2 and C7 up to 10 mg/L treatment. (D) Quantification on copy number of viral genome was tested by exposure to C2 and C7 up to 10 mg/L treatment at 24, 48, and 72 hpi, respectively. The virus-infected shrimps were immersed with the compounds and DMSO at the dose 0.2‰ (v/v). Each value is represented as the mean ± SD normalized to values for no treatment. The p value for each study was determined by Student’s t tests. ** p < 0.01.
[…], shrimp larvae were randomly selected, separated into six-well plates containing ultraviolet light-sterilized aquacultural water, and infected with WSSV (final viral titer of 1.6 × 10^5 copies/µL) in the presence of coumarins for 72 h. Mock negative controls (1% DMSO) were also used. The homogenate of each well containing sick or dead shrimp was subjected to low-speed centrifugation (2000× g). The viral load was quantified by determining the copy number of the viral genome in samples by quantitative reverse transcription polymerase chain reaction (RT-qPCR) assay, as previously described.

[2] = Solubility / precipitation in aquacultural water; assay type: physicochemical; settings: for lowest precipitation concentration / lowest precipitation concentration (bracketed value in LC50 48 h column) / lowest precipitation concentration (bracketed value in LC50 72 h column): test range 0.4~100 mg/L, aquacultural water, LC50 NONE; for solubility in aquacultural water: tested concentration 16 mg/L, 28 °C
Experimental: Prior to evaluation of the anti-WSSV activity of coumarins, the safety doses for larvae needed to be determined. […] In contrast, the electron-withdrawing group was more toxic than the electron-donating group, with the LC50 of A5‒A8 being <5 mg/L at 72 h. […] Based on preliminary analysis of the structure-activity relationship (SAR) of similar spatial structures with different substituents of electron-donating and electron-withdrawing groups to coumarins A1, B1, and C1, we considered that […] of compounds; this provides a basis for further research.
All conventional reagents and solvents are purchased directly from commercial companies and no further purification is required. Organic solvents were purchased from Sinopharm chemical reagent Co., Ltd. and purified by distillation and moisture was excluded from the glass apparatus using CaCl2 drying tubes. Throughout this study, silica gel H (200–300 mesh; Qingdao Marine Chemical Factory, Qingdao, China) was used for the column chromatography. For thin layer chromatographic (TLC) plates, Silica gel (GF254) (Qingdao Marine Chemical Factory, Qingdao, China) were used for thin layer chromatographic (TLC) analysis, and all of the spots and bands were detected by UV irradiation (254, 365 nm). The intermediates and products were characterized by electrospray ionization mass spectrometry (TripleTOF5600þ; AB SCIEX Pte. Ltd., Boston, MA, USA), ^1H NMR and ^13C NMR (Bruker AM500 spectrometer; Bruker Corporation, Berne, Switzerland). The derivatives were dissolved in 100% dimethyl sulfoxide (DMSO; Beyotime Biotechnology, Haimen, China), stored at 4 °C prior to antiviral evaluation, and used within 6 months. For solubility, the stock solutions, at a concentration of 50 mg/mL, were sonicated for approximately 10 min to ensure that the derivatives were fully dissolved and mixed.

[3] = system: white spot syndrome virus (WSSV); assay: Stability assay in aquacultural water (residual anti-WSSV activity); parameters: species or system Litopenaeus vannamei; settings: 28 °C, nonlinear regression best-fit
Experimental: Aquaculture water was obtained from culture ponds of the Zhejiang Mariculture Research Institute Qingjiang Station. C2/C7, with a final concentration of 10 mg/L, was added to aquacultural water samples in the presence of natural light for up to 4 days, at 28 °C, and finally preincubated with WSSV (final viral titer of 1.6 × 10^5 copies/µL) to infect shrimp larvae, followed by quantification of the copy number of the viral genome at 72 hpi, and the survival rate of the shrimp was evaluated.

[4] = system: white spot syndrome virus (WSSV); assay: Preincubation of WSSV with compound before infection of larvae; assay type: in vivo, Litopenaeus vannamei; settings: virus pre-incubated with compound 1–4 h; for increase of survival rate: 10 mg/L
Experimental: For preincubation with immersion, WSSV was preincubated with C2/C7 to a final viral titer of 1.6 × 10^5 copies/µL and up to 10 mg/L coumarin compound or vehicle control in the challenge wells. After 1, 2, and 4 h of incubation, shrimp larvae were added to the challenge well until 72-h post-infection. The surviving shrimp were humanely euthanized with tricaine methane sulfonate (MS-222) at a final concentration of 150 mg/L, followed by quantification of the copy number of the viral genome.

[5] = system: white spot syndrome virus (WSSV); assay: Continuous immersion with compound exchange after WSSV infection; assay type: in vivo, Litopenaeus vannamei; settings: for survival rate: 10 mg/L
Experimental: For continuous immersion with cultural medium exchange, the culture water in each well was replaced by C2/C7 or DMSO solution after WSSV infection (final viral titer of 1.6 × 10^5 copies/µL) for 24 h. Every 24 h, the shrimp were transformed into a new challenge well with fresh water and a fresh dose of C2/C7 or DMSO (0.2‰) for an additional 5 days. The survival shrimps were euthanized with MS-222 and frozen at −80 °C until processing. The survival of shrimp larvae and the copy number of viral genome in samples were described as above.

[6] = 60 h after exposure, larvae pre-infected 24 h, no exchange, untreated 0%
[7] = at 120 h, compound exchanged one to four times

Compound | enhancement of survival rate in WSSV-infected larvae [1] | decrease of mortality of WSSV-infected larvae after exposure [1] | lowest precipitation concentration [2] | lowest precipitation concentration (bracketed value in LC50 48 h column) [2] | lowest precipitation concentration (bracketed value in LC50 72 h column) [2] | solubility in aquacultural water [2] | calculated inhibitory half-life in water samples ([3]; 10 mg/L) [h] | effect on WSSV infection (viral genome copy number) [4] | increase of survival rate [4] | survival rate [5, 6] [%] | mortality with continuous immersion of compound exchange ([5]; at 120 h) [%] | survival rate [5, 7] | half-life at 10 mg/L ([3]; buffer, read-out: calculated inhibitory half-life in water samples (converted)) [h]
2-amino-4-(4-chlorophenyl)-5-oxo-4H,5H-pyrano[3,2-c]chromene-3-carbonitrile [C7] | more than 65% | more than 60% | NONE (16) mg/L | NONE (16) mg/L | NONE (16) mg/L | insoluble | 57.6 | suppressed WSSV infection | up to 40% | 50 | 40 | more than 60% | 
Cc1ccc(C2C(C#N)=C(N)Oc3c2c(=O)oc2ccccc32)cc1 (stereo not drawn) [C2, 2-amino-5-oxo-4-(p-tolyl)-4H,5H-pyrano[3,2-c]chromene-3-carbonitrile] | more than 65% | more than 60% | NONE (16) mg/L | NONE (16) mg/L | NONE (16) mg/L | insoluble |  | suppressed WSSV infection | up to 40% | 50 | 40 | more than 60% | 55.2
